Assay results from patent US20260216103A1, “USE OF LONG-ACTING ß2AR AGONIST IN PREPARATION OF DRUGS FOR TREATING CANCERS” (HONG KONG SXMETEROL PHARMACEUTICAL CO., LIMITED, priority 2023, published 2026).
Structures can show the parent of a compound that is named as a salt.

Legend:
[1] = tested on: MDA-MB-231, SW620, CT-26, H460, H446, B16F10, A375, CAL-27, KYSE-150, RT4, SU-DHL-8, PC-3, Hep G2, SKOV3, 786-O, CFPAC-1, PANC-1, SF126, U2OS, Hela; test: tumor sphere formation assays of a variety of cancer cells (Example 3, BH); format: cell-based; conditions: 1 μM, 3 μM, or 10 μM, 7 d; FIG. 29
Method: After 7 d, tumor spheres in the control group and the BH treated group were counted and photographed, respectively.
(§1) Using a One-way ANOVA analysis method and Fisher's LSD test as a post test, statistical differences in the number of tumor spheres in all the groups were analyzed (*, P<0.05; **, P<0.01; ***, P<0.001; ****, P<0.0001).

[2] = tested on: cancer stem cells of 17 cancers; test: tumor sphere formation assays of cancer cells, summary over 17 cancers; format: cell-based; conditions: summary of Examples 1-9; agonist used alone
Source text: As a gold standard for detecting the self-renewal capability of cancer stem cells in vitro, a tumor sphere formation assay may detect individual cancer stem cell that continuously self-renew in a conditioned medium and form tumor spheres consisting of multiple cells. This in vitro experiment is often used to test the responsiveness of clinical patients to anticancer drugs, and guide in vivo medication of the clinical patients.
Cancer stem cells have self-renewal capability, which determines the initiation and progression of cancers. As a gold standard for detecting the self-renewal capability of cancer stem cells in vitro, a tumor sphere formation assay may detect individual cancer stem cells that continuously self-renew in a conditioned medium and form tumor spheres consisting of multiple cells.

[3] = tested on: MDA-MB-231, SW620, CT-26, H460, H446, B16F10, A375, CAL-27, KYSE-150, RT4, SU-DHL-8, PC-3, Hep G2, SKOV3, G-401, CFPAC-1, PANC-1, SF126, U2OS, Hela; test: tumor sphere formation assays of a variety of cancer cells (Example 7, OH); format: cell-based; conditions: 1 μM, 3 μM, or 10 μM, 7 d; FIG. 33
Source text: According to culture conditions in Table 1-Table 17 of Example 1, breast cancer cells MDA-MB-231 (A), colorectal cancer cells SW620 (B), colorectal cancer cells CT-26 (C), lung cancer cells H460 (D), lung cancer cells H446 (E), melanoma cells B16F10 (F), melanoma cells A375 (G), head and neck cancer cells CAL-27 (H), esophageal cancer cells KYSE-150 (I), bladder cancer cells RT4 (J), hematoma cells SU-DHL-8 (K), prostate cancer cells PC-3 (L), liver cancer cells Hep G2 (M), ovarian cancer cells SKOV3 (N), kidney cancer cells G-401 (O), pancreatic cancer cells CFPAC-1 (P), pancreatic cancer cells PANC-1 (Q), brain cancer cells SF126 (R), osteosarcoma cells U2OS(S), and cervical cancer cells Hela (T) were subjected to tumor sphere formation assays, and treated with olodaterol hydrochloride (OH) at concentrations of 1 μM, 3 μM, or 10 μM, respectively. After 7 d, tumor spheres in the control group and the OH treated group were counted and photographed, respectively.
as §1

[4] = tested on: MDA-MB-231, SW620, CT-26, H460, H446, B16F10, A375, CAL-27, RT4, SU-DHL-8, PC-3, Hep G2, 786-O, SNU-1, CFPAC-1, PANC-1, SF126, Hela; conditions: 1 μM, 3 μM, or 10 μM, 7 d; FIG. 28
Method: After 7 d, tumor spheres in the control group and the AT treated group were counted and photographed, respectively.
Using a One-way ANOVA analysis method and Fisher's LSD test as a post test, statistical differences in the number of tumor spheres in all the groups were analyzed (*, P<0.05; **, P<0.01; ***, P<0.001; ****, P<0.0001; n.s., no significant difference).

[5] = tested on: MDA-MB-231, SW620, CT-26, H460, H446, B16F10, A375, CAL-27, KYSE-150, RT4, SU-DHL-8, PC-3, Hep G2, 786-O, CFPAC-1, PANC-1, Hela; test: tumor sphere formation assays of a variety of cancer cells (Example 4, CH); format: cell-based; conditions: 1 μM, 3 μM, or 10 μM, 7 d; FIG. 30
Method: After 7 d, tumor spheres in the control group and the CH treated group were counted and photographed, respectively.
as §1

[6] = tested on: MDA-MB-231, SW620, CT-26, H460, H1299, LLC, H446, B16F10, A375, CAL-27, KYSE-150, RT4, SU-DHL-8, PC-3, Hep G2, G-401, SNU-1, CFPAC-1, PANC-1, SF126, U2OS, Hela; test: tumor sphere formation assays of a variety of cancer cells (Example 6, IM); format: cell-based; conditions: 1 μM, 3 μM, or 10 μM, 7 d; FIG. 32
Source text: After 7 d, tumor spheres in the control group and the IM treated group were counted and photographed, respectively.

[7] = tested on: MDA-MB-231, SW620, CT-26, H460, H446, B16F10, A375, CAL-27, KYSE-150, RT4, SU-DHL-8, PC-3, Hep G2, 786-O, CFPAC-1, PANC-1, Hela; test: tumor sphere formation assays of a variety of cancer cells (Example 5, FH); format: cell-based; conditions: 1 μM, 3 μM, or 10 μM, 7 d; FIG. 31
Method: After 7 d, tumor spheres in the control group and the FH treated group were counted and photographed, respectively.
as §1

[8] = tested on: MDA-MB-231, SW620, CT-26, H460, H1299, LLC, H446, B16F10, A375, CAL-27, KYSE-150, RT4, SU-DHL-8, PC-3, Hep G2, G-401, 786-O, SNU-1, CFPAC-1, PANC-1, SF126 …; test: tumor sphere formation assays of a variety of cancer cells (Example 9, VT); format: cell-based; conditions: 1 μM, 3 μM, or 10 μM, 7 d; FIG. 35
Source text: After 7 d, tumor spheres in the control group and the VT treated group were counted and photographed, respectively.

[9] = tested on: MDA-MB-231, SW620, CT-26, H460, H1299, LLC, H446, B16F10, A375, CAL-27, KYSE-150, RT4, SU-DHL-8, PC-3, Hep G2, G-401, 786-O, SNU-1, CFPAC-1, SF126, Hela; test: tumor sphere formation assays of a variety of cancer cells (Example 8, TH); format: cell-based; conditions: 1 μM, 3 μM, or 10 μM, 7 d; FIG. 34
Source text: After 7 d, tumor spheres in the control group and the TH treated group were counted and photographed, respectively.

chronic myeloid leukemia = conditions: patients, first-line treatment for chronic myeloid leukemia; cited from earlier work

In the case of `CN(C)C(=O)Oc1cc(OC(=O)N(C)C)cc(C(O)CNC(C)(C)C)c1` (stereo not shown) [bambuterol hydrochloride], the “number of tumor spheres (inhibition of tumor sphere formation)” value [1] is reported as “has therapeutic effects on a variety of types of cancer in a concentration dependent manner” and the “self-renewal capability of cancer stem cells” value (“self-renewal capability” below) [2] is reported as “can significantly inhibit the self-renewal capability of cancer stem cells of 17 cancers”.

For `COc1ccc(CC(C)(C)NC[C@H](O)c2cc(O)cc3c2OCC(=O)N3)cc1` [olodaterol hydrochloride], the “number of tumor spheres (inhibition of tumor sphere formation)” value [3] was “has therapeutic effects on a variety of types of cancer in a concentration dependent manner” and the “self-renewal capability” value [2] was “can significantly inhibit the self-renewal capability of cancer stem cells of 17 cancers”.

For `COc1ccc(C[C@@H](C)NC[C@H](O)c2ccc(O)c(NC=O)c2)cc1` [arformoterol tartrate], the “number of tumor spheres (inhibition of tumor sphere formation)” value [4] was “has therapeutic effects on a variety of types of cancer in a concentration dependent manner”.

For `CC(C)(C)NCC(O)c1cc(Cl)c(N)c(Cl)c1` (stereo not shown) [clenbuterol hydrochloride], the “number of tumor spheres (inhibition of tumor sphere formation)” value [5] was “has therapeutic effects on a variety of types of cancer in a concentration dependent manner” and the “self-renewal capability” value [2] was “can significantly inhibit the self-renewal capability of cancer stem cells of 17 cancers”.

In the case of `CCc1cc2c(cc1CC)CC(NC[C@H](O)c1ccc(O)c3[nH]c(=O)ccc13)C2` [indacaterol maleate], the “number of tumor spheres (inhibition of tumor sphere formation)” value [6] is reported as “has therapeutic effects on a variety of types of cancer in a concentration dependent manner” and the “self-renewal capability” value [2] is reported as “can significantly inhibit the self-renewal capability of cancer stem cells of 17 cancers”.

With `COc1ccc(C[C@@H](C)NC[C@H](O)c2ccc(O)c(NC=O)c2)cc1.COc1ccc(C[C@@H](C)NC[C@H](O)c2ccc(O)c(NC=O)c2)cc1.O=C(O)/C=C/C(=O)O` [formoterol hemifumarate] the “number of tumor spheres (inhibition of tumor sphere formation)” value [7] was “has therapeutic effects on a variety of types of cancer in a concentration dependent manner” and the “self-renewal capability” value [2] was “can significantly inhibit the self-renewal capability of cancer stem cells of 17 cancers”.

For `O=C(O)C(c1ccccc1)(c1ccccc1)c1ccccc1.OCc1cc([C@@H](O)CNCCCCCCOCCOCc2c(Cl)cccc2Cl)ccc1O` [vilanterol trifenate], the “number of tumor spheres (inhibition of tumor sphere formation)” value [8] was “has therapeutic effects on a variety of types of cancer in a concentration dependent manner” and the “self-renewal capability” value [2] was “can significantly inhibit the self-renewal capability of cancer stem cells of 17 cancers”.

In the case of `CC(C)(C)NCC(O)c1ccccc1Cl` (stereo not shown) [tulobuterol hydrochloride], the “number of tumor spheres (inhibition of tumor sphere formation)” value [9] is reported as “has therapeutic effects on a variety of types of cancer in a concentration dependent manner” and the “self-renewal capability” value [2] is reported as “can significantly inhibit the self-renewal capability of cancer stem cells of 17 cancers”.

For `Cc1ccc(NC(=O)c2ccc(CN3CCN(C)CC3)cc2)cc1Nc1nccc(-c2cccnc2)n1` [imatinib, Imatinib], the “overall 10-year survival rate” value (chronic myeloid leukemia) is given as 83.3%.
